Consider one substance from US6491922B1, “Methods and compounds for treating autoimmune and vascular disease” (Cornell Research Foundation, Inc., priority 1996, dated 2002).

Entries after “also recorded” stand apart in the source; their conditions may differ.

The subject of one test is IL-1β transcription. The test can be described thus: In vitro transcription by nuclear run-off assay, IL-1β. It is filed as cell-based, human. The settings on record: THP-1 nuclei; 2 μM LPG 2 h, LPS 2 μg/ml 4 h. The procedure: Nuclei isolation. Procedures for isolating nuclei have been described in Ausubel, F. M. et al., Current Protocols in Molecular Biology 1(4.9):4.9.1-4.9.14 and 1(4.10):4.10.1-4.10.11 (1993), hereby incorporated by reference. THP-1 cells (5×10^7 cells) treated with medium or medium containing 2 μM LPG for 2 h were stimulated or not stimulated with 2 μg/ml LPS for 4 h, at 37° C. in 5% CO2. Cells were harvested by gentle scraping, washed twice with 5 ml ice cold PBS and centrifugation at 350×g for 5 min. After removal of supernatant, cells were gently loosen by 5 sec vortex and 4 ml NP-40 buffer was added by continuous vortex. The NP-40 buffer is composed of 10 mM Tris HCl (pH 7.4), 10 mM NaCl, 3 mM MgCl2, and 0.5% noridet P-40 (NP-40). The cell suspension was further vortexed at half maximal speed for 10 sec and placed on ice for 5 min. Cells were visually inspected to ascertain the separation of nuclei from cytophasmic material. Nuclei were wash once more with 4 ml NP-40 buffer by centrifugation at 350×g, 5 min. The pelleted nuclei were resuspended with 200 μl glycerol buffer and stored in liquid nitrogen until nuclear run-off assay. Glycerol buffer is composed of 50 mM Tris Hcl (pH 8.3), 40% (v/v) glycerol, 5 mM MgCl2, 0.1 mM ethylenediaminetetraacetic acid (EDTA).
In vitro transcription. […]

Test [1] has as its system murine nitric oxide synthase activity. Put plainly: Nitrite production (Griess assay) in RAW 264.7 cells. Format: cell-based. The procedure: RAW 264.7 cells were treated with LPG 1 μM and simultaneously stimulated with endotoxin and mIFN-γ. Supernatants from each treatment condition were removed at 24, 48, and 72 hours, and nitrite production was measured by the Griess assay.
To determine whether LPG can alter NOS expression, a well characterized murine macrophage cell line, RAW 264.7 cells, were used to measure NOS activity. […] Because macrophages encounter LPG usually in the context of entry of the parasite, it was examined whether Leishmania promastigotes, upon entry into macrophages, transfer LPG onto the macrophage cell surfaces and inhibit nitrite production. L. donovani prosmastigotes (“Ld3”) within 15 minutes of attachment to human monocytes, THP-1 cells, or murine peritoneal macrcophages transferred LPG onto the surface of the macrophages, as determined by a monoclonal antibody against LPG and indirect fluorescent microscopy. Two hours after entering murine peritoneal macrophages, Ld3 promastigoes suppressed endotoxin- and IFN-γ induction of NOS activity; the inhibition was parasite dose dependent.
In general terms: Nitrite, measured by Griess reagent, commonly stands in for NO production.

The next test has as its system GAPDH mRNA. Put plainly: GAPDH control transcript (Northern analysis, nuclear run-off). Format: cell-based, human.
The next test relates to TNF-α mRNA. The test can be described thus: TNF-α mRNA expression and stability after endotoxin. Format: cell-based, human.
The next test has as its system ICAM-1. Put plainly: Endotoxin-induced ICAM-1 expression on endothelial cells (FACS). It is filed as cell-based, human. Particulars: LPG pretreatment 1 h. The method, then:
Endothelial cells pretreated with LPG at indicated amounts for 1 h were subsequently challenged with endotoxin. Washed cells incubated with monoclonal antibody specific for E-selectin or ICAM-1 were counter stained with fluorescein labeled anti-murine antibody, fixed and analyzed by FACS.

The subject of a further test is IL-1β mRNA. The test can be described thus: Northern analysis of IL-1β mRNA induction in THP-1 cells. Particulars: for amount of IL-1β mRNA in response to LPS: LPS 2 μg/ml 4 h.

Description for IL-1β mRNA: Human monocytes were cultured in endotoxin free complete medium as previously described. […] THP-1 cells were maintained in RPMI-1640 supplemented with 2 mM L-glutamine, 100 U/ml penicillin-streptomycin, 5×10^−5 M β-mercaptoethanol, and 10% heat-inactivated fetal bovine serum (FBS). For experiments to determine the effect of LPG, THP-1 cells (10×10^6 per condition) were washed with RPMI 1640 and resuspended in complete medium composed of RPMI-1640 supplemented with 2 mM L-glutamine, 100 U/ml penicillin and 100 μg/ml streptomycin. These cells were cultured in 24-well plates with or without 0.01 to 2 μM LPG (0.1 to 20 μg/ml) for different times either before (−h), simultaneously with (0 h) or after (+h) the addition of inducers of IL-1β (eg., LPS, TNF-α, or S. epidermidis). Peripheral blood monocytes enumerated after detachment using a rubber policeman were similarly treated or not with LPG and cultured with stimuli. Cell were stimulated with 0.1 to 3 μg/ml LPS, TNF-α (50 ng/ml), 25 to 50 ng/ml PMA for 4 to 24 h, or opsonized heat-killed S. epiderimidis at ratio of 10 particles per cell.
Cells treated with or without LPG and/or inducers of IL-1β were harvested by gentle scrapping using a rubber policeman and sedimented by centrifugation at 500 g for 5 minutes in a microfuge. Total RNA was extracted using RNA STAT-60 solution (TEL-TEST “B” Inc., Friendswood, Tex.), based on a single step method for RNA isolation (P. Chomczynski and N. Sacchi, “Single-step Method of RNA Isolation by Acid Guanidinium Thiocyanate-phenol-chloroform Extraction,” Anal. Biochem., 162:156-59 (1987), hereby incorporated by reference), and quantitated by spectrophotometry. Equal amount of total RNA (15-20 μg per sample) was denatured, loaded onto 1.2% agarose-formaldehyde gel, run for 4 h at 30 volts and subsequently transferred by capillary action onto nylon membrane (0.45 μm pore size, NYTRAN, S&S, Keene, N.H.). Membranes were prehybridized at 42° C. for 4 h in prehybridization buffer (50% formamide, 6×SSPE, and 0.5% SDS), and hybridized in hybridization buffer (50% formamide, 6×SSPE, and 5 SDS) containing 10-15×10^6 cpm of random-priming ^32p-labeled IL-1β cDNA (Boehringer Mannheim GmbH, Mannheim, Germany). […] Washed membranes were exposed to KODAK X-OMAT AR films for 24 to 72 h and to phosphor screens (Molecular Dynamics Ltd., Kent, Tenn.) for 24-28 h. Quantitative analysis of the specific bands was performed using Phosphor Imager Analyzer. […] All percent suppression of IL-1β mRNA values were normalized by the amount of GAPDH present in each condition which varied less than 10% between conditions because equivalent amounts of total RNA were loaded for electrophoresis.

Regarding lipophosphoglycan [LPG], the “inhibition of LPS induced IL-1β mRNA transcription” value in the test on IL-1β transcription is reported as “approximately 65%”. For the same substance, the “effect on nitrite production” value in test [1] (RAW 264.7, LPG 1 μM simultaneous with endotoxin and IFN-γ) is listed as “inhibited the enhancement of nitrite production”. Besides, the “reversal of the inhibition by higher amounts of agonists” value in test [1] (higher amounts of endotoxin and IFN-γ) was “could not reverse”. Besides, in the test with GAPDH mRNA (THP-1, Northern analysis), the “effect on constitutive transcription of GAPDH mRNA” value is “not affected; also recorded: no effect”. The “effect on GAPDH transcription” value in the test with GAPDH mRNA (nuclear run-on assay (Example 35)) is on record as “no effect”. The “effect on endotoxin induction of TNF-α expression” value in the test with TNF-α mRNA (LPG added 2 h after endotoxin) is on record as “effective”; with TNF-α mRNA (LPG added 4 h prior to addition of endotoxin) it was “significantly suppressed”. Further, in the test with TNF-α mRNA (actinomycin D, data not shown), the “effect on TNF-α mRNA stability” value is listed as “minimal effect”. For the same substance, the “effect on endotoxin-mediated expression of ICAM-1” value in the test with ICAM-1 is on record as “strongly suppressed; also recorded: blockage or suppression”. Moreover, the “effect on IL-1β mRNA expression in monocytes” value in the test on IL-1β mRNA (LPG added simultaneously with the endotoxin) is recorded as “exerted an inhibitory effect”. For the same substance, the “effect of washing to remove LPG on LPG's ability to suppress LPS induction of IL-1β mRNA” value with IL-1β mRNA (THP-1, 1 or 2 μM LPG 2 h, washed twice, then LPS 4 h) is on record as “no effect”. Besides, the “suppression of LPS induction of IL-1β mRNA” value with IL-1β mRNA (THP-1, LPG 2 μM added between 2 h before to 1 h after LPS 2 μg/ml) is reported as “greater than 90%”. Moreover, the “inhibition of TNF-α induced IL-1β mRNA” value with IL-1β mRNA (THP-1, LPG 2 μM pretreatment 2 h, TNF-α 50 ng/ml, mean±SD, N=5) is listed as “approximately 50%±10%”. In addition, the “inhibition of S. epidermidis-induced IL-1β mRNA” value in the test with IL-1β mRNA (THP-1, LPG 2 μM pretreatment for 2 h, N=3) turned out to be 30±10%. Moreover, the “suppression of S. epidermidis-induced IL-1β mRNA” value with IL-1β mRNA (THP-1, LPG 2 μM simultaneous with opsonized S. epidermidis, N=3) was “greater than 80±19%”. In addition, the “suppression of PMA induction of IL-1β mRNA” value in the test on IL-1β mRNA (THP-1, LPG 2 μM, PMA 25 or 50 ng/ml, N=3) is recorded as “did not suppress”. Moreover, in the test on IL-1β mRNA (THP-1, LPG 1 or 2 μM added 4 h before LPS 2 μg/ml), the “inhibitory activity on LPS induction of IL-1β mRNA” value is “lost”. Also, the “effect on S. epidermidis-induced IL-1β mRNA” value with IL-1β mRNA (THP-1, LPG 2 h after S. epidermidis induction) was “minimal to no demonstrable effect”. The “suppression of IL-1β mRNA” value with IL-1β mRNA (THP-1, LPG added +2 h after LPS stimulation) is recorded as 70%. The “amount of IL-1β mRNA in response to LPS” value was “lower amounts of IL-1β mRNA” in the test on IL-1β mRNA (THP-1, pretreated 2 h with 1 μM LPG) and “little or no IL-1β mRNA detected” with IL-1β mRNA (THP-1, pretreated 2 h with 2 μM LPG). Also, the “maximum inhibition of IL-1β mRNA (dose-dependent)” value with IL-1β mRNA (THP-1, pretreated 2 h with LPG 0.01 to 2.0 μM, LPS 0.1 to 3 μg/ml) is “greater than 90%”. Further, in the test on IL-1β mRNA (THP-1, pretreatment with LPG 2 μM, endotoxin 2 μg/ml), the “inhibition of endotoxin-mediated IL-1β mRNA production” value is listed as “completely inhibited”.
